Assay results published in ChEMBL document CHEMBL5113518, “Discovery of a Novel G-Quadruplex and Histone Deacetylase (HDAC) Dual-Targeting Agent for the Treatment of Triple-Negative Breast Cancer” (J Med Chem, 2022).
The source made the active and inactive calls. The rule behind the calls is not given here.

Legend:
Quadruplex DNA [1] = test: Binding affinity to 5' FAM-labeled c-myc G4-quadruplex DNA Pu22 (unknown origin) by fluorescence quench assay; type: nucleic-acid assay
Quadruplex DNA [2] = conditions: dose 1.0 µM
Description: Binding affinity to 5' FAM and 3' TAMRA-labeled c-myc G4-quadruplex DNA Pu22 (unknown origin) assessed as change in melting temperature at 1 uM by fluorescence resonance energy transfer assay

Quadruplex DNA [3] = test: Binding affinity to 5' FAM-labeled […] (unknown origin) assessed as dissociation constant by surface plasmon resonance assay; type: nucleic-acid assay
Quadruplex DNA [4] = test: Binding affinity to 5' FAM and 3' TAMRA-labeled […] (unknown origin) assessed as change in melting temperature by fluorescence resonance energy transfer assay; type: nucleic-acid assay
Histone deacetylase [5] = test: Inhibition of HDAC in human MDA-MB-231 cells incubated for 45 mins by luminescence assay; type: cell-based
SUM-159-PT = test: Cytotoxicity against human SUM159PT cells harboring wild type BRCA1 and wild type BRCA2 assessed as reduction in cell viability; type: functional, cell-based
MDA-MB-231 [6] = test: Cytotoxicity against human MDA-MB-231 cells harboring wild type BRCA1 and wild BRCA2 assessed as reduction in cell viability; type: functional, cell-based
[7] = Stabilization of DNA Pu22 (unknown origin ) single strand assessed as G4-quadruplex formation in absence of potassium ions by spectrum based circular dichroism analysis; conditions: dose <= 30.0 µM; DDE = dose-dependent effect
Quadruplex DNA [8] = test: Binding affinity to 5' FAM and 3' TAMRA-labeled c-myc G4-quadruplex DNA HTG21 (unknown origin) assessed as change in melting temperature by fluorescence resonance energy transfer assay; type: nucleic-acid assay
MDA-MB-468 = test: Cytotoxicity against human MDA-MB-468 cells harboring wild type BRCA1 and BRCA2 mutant reduction in assessed as cell viability; type: functional, cell-based
MDA-MB-231 [9] = test: Antitumor activity against human MDA-MB-231 cells xenografted in BALB/c-nu/nu mouse assessed as increment ratio at 10 mg/kg, ip measured for 31 days; type: functional; conditions: time 31 day
Quadruplex DNA [10] = test: Binding affinity to 5' FAM-labeled c-myc G4-quadruplex DNA HTG21 (unknown origin) assessed as dissociation constant by surface plasmon resonance assay; type: nucleic-acid assay
Quadruplex DNA [11] = test: Binding affinity to 5' FAM-labeled c-myc G4-quadruplex DNA Pu22 (unknown origin) assessed as dissociation constant by surface plasmon resonance assay; type: nucleic-acid assay
MDA-MB-231 [12] = test: Antitumor activity against human MDA-MB-231 cells xenografted in BALB/c-nu/nu mouse assessed as tumor growth inhibition at 10 mg/kg, ip measured for 31 days; type: functional; conditions: MDA-MB-231, 744 h, time 31 day, read-out: TGI
BT-549 = test: Cytotoxicity against human BT-549 cells harboring wild type BRCA1 and wild type BRCA2 assessed as reduction in cell viability; type: functional, cell-based
[13] = Stabilization of DNA Pu22 (unknown origin ) single strand assessed as G4-quadruplex formation up to 30 uM in presence of potassium ions by spectrum based circular dichroism analysis
Quadruplex DNA [14] = test: Binding affinity to 5' FAM and 3' TAMRA-labeled c-myc G4-quadruplex DNA duplex (unknown origin) assessed as change in melting temperature by fluorescence resonance energy transfer assay; type: nucleic-acid assay
Histone deacetylase [15] = test: Inhibition of HDAC in human HeLa nuclear extract incubated for 30 mins by fluorescence-based Glo-luminescence assay; type: cell-based

| SMILES | DC50 (Quadruplex DNA [1]) | ΔTm (Quadruplex DNA [2]) | IC50 (Histone deacetylase [15]) | further results |
| --- | --- | --- | --- | --- |
| Nc1ccccc1NC(=O)c1ccc(CNC(=O)OCc2cccnc2)cc1 |  | 0.1 °C |  |  |
| Nc1ccccc1NC(=O)c1ccc(/C=C2\CCn3c2nc2cc(NCCCN4CCCC4)c(F)cc2c3=O)cc1 | 600 nM | 0.6 °C | 8600 nM |  |
| CN(C)CCCNC(=O)c1ccc(/C=C2\CCn3c2nc2cc(N4CCN(CCCCCCCC(=O)Nc5ccccc5N)CC4)c(F)cc2c3=O)cc1 | 1200 nM | 8.2 °C |  |  |
| CN(C)CCCNC(=O)c1ccc(/C=C2\CCn3c2nc2cc(NCCCCCCC(=O)NO)c(F)cc2c3=O)cc1.Cl | 300 nM | 7.2 °C | 70 nM |  |
| Cl.O=C(CCCCCCNC(=O)c1ccc(/C=C2\CCn3c2nc2cc(NCCCN4CCCC4)c(F)cc2c3=O)cc1)NO | 3000 nM | 3.2 °C | 50 nM |  |
| CN(C)CCCNC(=O)c1ccc(/C=C2\CCn3c2nc2ccc(OCCCCCCC(=O)NO)cc2c3=O)cc1.Cl | 900 nM | 4.4 °C | 60 nM |  |
| CN(C)CCCNC(=O)c1ccc(/C=C2\CCn3c2nc2cc(N4CCN(CCCCCC(=O)NO)CC4)c(F)cc2c3=O)cc1.Cl | 900 nM | 17.3 °C | 1600 nM |  |
| CN(C)CCCNc1cc2nc3n(c(=O)c2cc1F)CC/C3=C\c1ccc(C(=O)Nc2ccccc2N)cc1 | 200 nM | 2.3 °C | 5800 nM |  |
| CN(C)CCCNC(=O)c1ccc(/C=C2\CCn3c2nc2cc(N4CCN(Cc5ccc(/C=C/C(=O)NO)cc5)CC4)c(F)cc2c3=O)cc1.Cl | 200 nM | 1.8 °C | 1900 nM |  |
| CN(C)CCCNC(=O)c1ccc(/C=C2\CCn3c2nc2cc(N4CCN(CCCCC(=O)NO)CC4)c(F)cc2c3=O)cc1.Cl | 800 nM | 16.7 °C | 1500 nM |  |
| O=C(CCCCCCC(=O)Nc1ccccc1)NO [VORINOSTAT] |  |  |  | IC50 (MDA-MB-468): 2300 nM; T/C (MDA-MB-231 [9]): 39.3%; IC50 (BT-549): 2300 nM |
| CN1CCN(c2cc3nc4n(c(=O)c3cc2F)CC/C4=C\c2ccc(C(=O)NO)cc2)CC1 | 2900 nM | 5.7 °C |  |  |

Further compounds by falling DC50 (Quadruplex DNA [1]), results first:

| DC50 (Quadruplex DNA [1]) | ΔTm (Quadruplex DNA [2]) | IC50 (Histone deacetylase [15]) | SMILES | further results |
| --- | --- | --- | --- | --- |
| 1700 nM | 15.9 °C | 2100 nM | CN(C)CCCNC(=O)c1ccc(/C=C2\CCn3c2nc2cc(N4CCN(CCCCCCC(=O)NO)CC4)c(F)cc2c3=O)cc1.Cl |  |
| 1400 nM | 17.4 °C |  | CCN(CC)CCCNC(=O)c1ccc(/C=C2\CCn3c2nc2cc(NCCCN4CCCC4)c(F)cc2c3=O)cc1 | Kd (Quadruplex DNA [3]): 3600 nM; ΔTm (Quadruplex DNA [4]): 6.4 °C; IC50 (Histone deacetylase [5]): > 10000 nM; IC50 (SUM-159-PT): 47300 nM; IC50 (MDA-MB-231 [6]): 10700 nM; Activity [7]: Dde; ΔTm (Quadruplex DNA [8]): 7.3 °C; IC50 (MDA-MB-468): 47100 nM; T/C (MDA-MB-231 [9]): 69.7%; Kd (Quadruplex DNA [10]): > 10000 nM; Kd (Quadruplex DNA [11]): 1800 nM; inhibition in vivo at 10 mg/kg (MDA-MB-231 [12]): 48.2%; IC50 (BT-549): 14600 nM; Activity [13]: Active; ΔTm (Quadruplex DNA [14]): 1.8 °C |
| 1300 nM | 16.4 °C |  | CN(C)CCCNC(=O)c1ccc(/C=C2\CCn3c2nc2cc(N4CCN(CCCC(=O)NO)CC4)c(F)cc2c3=O)cc1 |  |
| 300 nM | 0.7 °C | 8100 nM | CN(C)CCCNC(=O)c1ccc(/C=C2\CCn3c2nc2cc(N4CCN(Cc5ccc(/C=C/C(=O)Nc6ccccc6N)cc5)CC4)c(F)cc2c3=O)cc1 |  |
| 200 nM | 0.3 °C |  | CN1CCN(c2cc3nc4n(c(=O)c3cc2F)CC/C4=C\c2ccc(C(=O)Nc3ccccc3N)cc2)CC1 |  |
| 200 nM | 4.3 °C | 2500 nM | CN(C)CCCNC(=O)c1ccc(/C=C2\CCn3c2nc2cc(N4CCN(Cc5ccc(C(=O)NO)cc5)CC4)c(F)cc2c3=O)cc1.Cl |  |
